Biological target: MoADH (His-tagged alcohol dehydrogenase from Moraxella sp. TAE123) (Moraxella sp. TAE123, UniProt Q8GIX7)
Set-up: gene adh
Details: turnover, fixed 35 mM ethanol, NAD+ varied 0-4.0 mM; pH 7.4; 10-53 °C

Sequence of MoADH (His-tagged alcohol dehydrogenase from Moraxella sp. TAE123) (Q8GIX7 whole entry): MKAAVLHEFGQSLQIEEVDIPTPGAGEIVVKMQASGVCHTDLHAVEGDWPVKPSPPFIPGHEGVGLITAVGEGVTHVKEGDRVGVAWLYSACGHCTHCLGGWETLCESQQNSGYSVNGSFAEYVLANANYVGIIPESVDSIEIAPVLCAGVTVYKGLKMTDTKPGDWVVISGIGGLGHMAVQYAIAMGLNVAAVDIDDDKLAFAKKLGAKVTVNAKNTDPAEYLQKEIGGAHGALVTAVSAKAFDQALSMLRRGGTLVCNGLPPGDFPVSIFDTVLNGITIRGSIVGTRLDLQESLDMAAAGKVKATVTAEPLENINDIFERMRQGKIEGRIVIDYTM

CCO [ethanol]
NADH absorbance at 340 nm, microplate reader: Ethanol oxidation reaction rates have been measured as a function of temperature

— paper PMC7315583, “Structure and Dynamics of a Thermostable Alcohol Dehydrogenase from the Antarctic Psychrophile Moraxella sp. TAE123” (ACS Omega, 2020)
